Measurements as given in US6875761B2 (Eisai Co., Ltd., priority 1997, dated 2005).
Counter-ions that a name gives are not always drawn.

Assays:
serotonin 1A receptor = molecular target: T1, serotonin 1A receptor (Rattus norvegicus, UniProt P19327); assay: Binding test on [3H] 8-hydroxy-dipropylaminotetralin, hippocampus receptor fraction; design: species or system SD rats; conditions: rat hippocampus receptor fraction, 0.5 nM [3H] 8-OH-DPAT, room temperature 30 min; read-out: 5HT1
T1 construct: To the receptor fraction of the hippocampus were added a test compound and 0.5 nM of [^3H]; 8-hydroxy-dipropylaminotetralin; from tissue; host or cells: rat hippocampus membrane fraction
T1 sequence (P19327 1-422): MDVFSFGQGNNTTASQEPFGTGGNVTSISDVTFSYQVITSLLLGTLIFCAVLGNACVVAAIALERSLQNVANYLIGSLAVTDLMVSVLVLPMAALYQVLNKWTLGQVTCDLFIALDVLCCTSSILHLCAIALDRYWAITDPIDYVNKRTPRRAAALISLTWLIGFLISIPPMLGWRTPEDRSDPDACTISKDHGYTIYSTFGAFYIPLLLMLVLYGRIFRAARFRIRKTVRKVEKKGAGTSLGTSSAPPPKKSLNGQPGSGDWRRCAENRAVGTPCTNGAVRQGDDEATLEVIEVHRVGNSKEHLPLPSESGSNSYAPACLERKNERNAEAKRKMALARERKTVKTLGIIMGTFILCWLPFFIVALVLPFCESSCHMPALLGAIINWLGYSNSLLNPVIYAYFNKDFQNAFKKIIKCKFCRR

serotonin 2 receptor = molecular target: T2, serotonin 2 receptor (Rattus norvegicus, UniProt P14842); assay: Binding test on [3H] ketanserin, cerebral cortex receptor fraction; design: species or system SD rats; conditions: 0.3 nM [3H] ketanserin, 37° C. 15 min, read-out: 5HT2
T2 construct: To the receptor fraction of the cerebral cortex were added a test compound and 0.3 nM of [^3H] ketanserin; from tissue; host or cells: rat cerebral cortex membrane fraction
T2 sequence (P14842 whole entry): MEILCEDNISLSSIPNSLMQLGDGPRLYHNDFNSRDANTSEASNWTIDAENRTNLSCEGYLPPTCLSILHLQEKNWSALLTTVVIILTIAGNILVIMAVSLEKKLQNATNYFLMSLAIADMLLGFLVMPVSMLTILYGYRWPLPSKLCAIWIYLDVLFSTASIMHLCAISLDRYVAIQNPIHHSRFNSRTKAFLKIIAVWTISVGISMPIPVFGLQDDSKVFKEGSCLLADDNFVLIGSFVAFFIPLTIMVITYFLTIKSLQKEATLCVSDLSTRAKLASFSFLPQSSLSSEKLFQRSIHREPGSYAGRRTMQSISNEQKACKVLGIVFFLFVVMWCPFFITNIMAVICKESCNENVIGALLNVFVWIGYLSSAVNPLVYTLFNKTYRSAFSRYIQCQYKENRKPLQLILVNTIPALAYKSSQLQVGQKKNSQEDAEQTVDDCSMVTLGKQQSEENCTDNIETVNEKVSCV

Ki (serotonin 1A receptor) | Ki (serotonin 2 receptor) | Compound
2.6 nM | 4.9 nM | CCN1CCN(c2nc(-c3ccc(S(=O)(=O)CCCF)cc3)cc3ccccc23)CC1 [Example 355, 1-(4-ethylpiperazin-1-yl)-3-[4-(3-fluoropropyl)sulfonylphenyl]isoquinoline dihydrochloride]
53.3 nM | 0.9 nM | CCN1CCN(c2nc(-c3ccc([C@H]4CC[C@@H](O)CC4)cc3)cc3ccccc23)CC1 [Example 397, 1-(4-Ethylpiperazin-1-yl)-3-[4-(cis-4-Hydroxycyclohexyl)Phenyl]Isoquinoline Dihydrochloride]
37.2 nM | 21.8 nM | CCN1CCN(c2nc(-c3ccc(N4C[C@@H](C)O[C@@H](C)C4)nc3)cc3ccccc23)CC1 [Example 149, 3-[2-(2,6-dimethylmorpholin-4-yl)pyridin-5-yl]-1-(4-ethylpiperazin-1-yl)isoquinoline trihydrochloride]
61.6 nM | 1.93 nM | CCN1CCN(c2nc(COc3ccc(OC)cc3)cc3ccccc23)CC1 [Example 424, 1-(4-ethylpiperazin-1-yl)-3-(4-methoxyphenoxymethyl)isoquinoline Hydrochloride]
109 nM | 72.2 nM | CCN1CCN(c2nc(-c3ccc(OCCO)cc3)cc3cccnc23)CC1 [Example 245, 8-(1-ethylpiperazin-4-yl)-6-[4-(2-hydroxyethoxy)phenyl]-1,7-naphthyridine Dihydrochloride]
2 nM | 1.5 nM | CCN1CCN(c2nc(-c3ccc(NS(=O)(=O)CC)cc3)cc3ccccc23)CC1 [Example 71, 3-(4-Ethylsulfonylaminophenyl)-1-(4-Ethylpiperazin-1-Yl)Isoquinoline Hydrochloride]
2.2 nM | 17.4 nM | CCN1CCN(c2nc(-c3ccc(CCCOC(C)C)nc3)cc3ccccc23)CC1 [Example 143, 1-(1-Ethylpiperazin-4-yl)-3-[2-[3-(2-Propoxy)Propyl]Pyridin-5-yl]Isoquinoline Oxalate]
91.9 nM | 75.9 nM | CCN1CCN(c2nc(-c3cccc(OCCO)c3)cc3sccc23)CC1 [Example 284, 4-(1-ethylpiperazin-4-yl)-6-[3-(2-hydroxyethoxy)phenyl]thieno-[3,2-c]pyridine dihydrochloride]
35.3 nM | 5.7 nM | CCN1CCN(c2nc(-c3ccc(OC)c(CCCCO)c3)cc3ccccc23)CC1 [Example 35, 3-[3-(4-hydroxybutyl)-4-methoxyphenyl]-1-(4-ethylpiperazin-1-yl)isoquinoline hydrochloride]
43.2 nM | 12 nM | CCN1CCN(c2nc(-c3ccc(SC[C@@H](C)O)cc3)cc3ccsc23)CC1 [Example 444, 7-(4-ethylpiperazin-1-yl)-5-[4-(2-hydroxypropylthio)phenyl]thieno[2,3-c]pyridine dihydrochloride]
62.9 nM | 18.8 nM | CCN1CCN(c2nc(-c3ccc(O[C@@H](C)CO)cc3)cc3ccsc23)CC1 [Example 438, 7-(4-ethylpiperazin-1-yl)-5-[4-(1-methyl-2-hydroxyethoxy)phenyl]thieno[2,3-c]pyridine dihydrochloride]
26 nM | 4.9 nM | CCN1CCN(c2nc(-c3ccc(OCCO)c(Cl)c3)cc3ccccc23)CC1 [Example 39, 3-[3-chloro-4-(2-hydroxyethoxy)phenyl]-1-(4-ethylpiperazin-1-yl)isoquinoline hydrochloride]
28.5 nM | 16.5 nM | CCN1CCN(c2nc(-c3ccc(CC(C)(C)O)cc3)cc3ccccc23)CC1 [Example 377, 1-(4-Ethylpiperazin-1-yl)-3-[4-(2-Hydroxy-2-Methylpropyl)Phenyl]Isoquinoline Oxalate]
63.3 nM | 16.2 nM | CCN1CCN(c2nc(-c3ccc4c(c3)CC(C)(CO)O4)cc3ccsc23)CC1 (stereo not shown) [Example 456, dihydrochloride]
3 nM | 1.3 nM | CCN1CCN(c2nc(-c3ccc(S(=O)(=O)NCCOC)cc3)cc3ccccc23)CC1 [Example 354, 1-(4-ethylpiperazin-1-yl)-3-{4-[N-(2-methoxyethyl)sulfamoyl]phenyl}isoquinoline dihydrochloride]
25 nM | 29 nM | CN(C)CCC=C1c2ccccc2C=Cc2ccccc21 [Cyclobenzaprine, cyclobenzaprine hydrochloride, reference compound]
15.4 nM | 19.4 nM | CCN1CCN(c2nc(-c3ccc(OCC(C)O)cc3)cc3ccoc23)CC1 (stereo in doubt) [Example 304, 7-(1-ethylpiperazin-4-yl)-5-[4-[(S)-2-hydroxypropoxy]phenyl)furo[2,3-c]pyridine dihydrochloride]
25.1 nM | 24.7 nM | CCN1CCN(c2nc(-c3ccc(C(O)CO)cc3)cc3ccccc23)CC1 (stereo not shown) [Example 387, 1-(4-Ethylpiperazin-1-yl)-3-[4-(1,2-Dihydroxyethyl)Phenyl]Isoquinoline Dihydrochloride]
6.49 nM | 19.5 nM | CCN1CCN(c2nc(/C=C/c3ccccc3OCCO)cc3ccoc23)CC1 [Example 308, oxalate]
15.5 nM | 58.4 nM | CCN1CCN(c2nc(-c3ccc(OCCOC)nc3)cc3ccsc23)CC1 [Example 269, 5-[2-(2-methoxyethoxy)pyridin-5-yl]-7-(4-ethylpiperazin-1-yl)-thieno[2,3-c]pyridine hydrochloride]
37.2 nM | 0.44 nM | CCN1CCN(c2nc(/C=C/c3ccccc3)cc3ccccc23)CC1 [Example 189, 1-(1-Ethylpiperazin-4-Yl)-3-(Trans-2-Phenylethenyl)Isoquinoline Dihydrochloride]
12.6 nM | 23.2 nM | CCN1CCN(c2nc(-c3ccc(CCCO)c(Cl)c3)cc3ccsc23)CC1 [Example 257, 5-[4-(3-hydroxypropyl)-3-chlorophenyl]-7-(4-ethylpiperazin-1-yl)thieno[2,3-c]pyridine Oxalate]
15.6 nM | 7.59 nM | CCN1CCN(c2nc(/C=C/c3ccc(N4CCOCC4)nn3)cc3ccccc23)CC1 [Example 214, 3-{(E)-2-[3-(4-Morpholinyl)Pyridazin-6-Yl]Ethenyl}-1-(4-Ethylpiperazin-1-Yl)Isoquinoline Oxalate]
26 nM | 20.7 nM | CCN1CCN(c2nc(-c3ccc(OCCO)c(OC)c3)cc3ccccc23)CC1 [Example 340, 1-(4-ethylpiperazin-1-yl)-3-[4-(2-hydroxyethoxy)-3-methoxyphenyl]isoquinoline dihydrochloride]

Compound | Ki (serotonin 1A receptor) | Ki (serotonin 2 receptor)
CCN1CCN(c2nc(-c3ccc(C(O)c4nccs4)cc3)cc3ccccc23)CC1 (stereo not shown) [Example 412, 1-(4-ethylpiperazin-1-yl)-3-[4-(1,3-thiazol-2-yl)hydroxymethylphenyl]isoquinoline] | 19.1 nM | 41.4 nM
CCN1CCN(c2nc(-c3ccc(CCCO)cn3)cc3ccccc23)CC1 [Example 134, 1-(1-Ethylpiperazin-4-yl)-3-[5-(3-Hydroxypropyl)Pyridin-2-yl]Isoquinoline] | 4.9 nM | 12.4 nM
CCN1CCN(c2nc(-c3ccc(CCCOC)cc3)cc3ccccc23)CC1 [Example 333, 1-(4-ethylpiperazin-1-yl)-3-[4-(3-(methoxypropyl)phenyl]isoquinolinedihydrochloride] | 17.1 nM | 6.1 nM
CCC/C(=N\O)c1ccc(-c2cc3ccccc3c(N3CCN(CC)CC3)n2)cc1 [Example 380, 1-(4-Ethylpiperazin-1-yl)-3-[4-(1-Hydroxyiminobutyl)Phenyl]Isoquinoline] | 31.2 nM | 23 nM
CCN1CCN(c2nc(-c3ccc(S(C)(=O)=O)cc3)cc3ccsc23)CC1 [Example 445, 7-(4-ethylpiperazin-1-yl)-5-(4-methanesulfonylphenyl)thieno)[2,3-c]pyridine dihydrochloride] | 5.46 nM | 90.4 nM
CCN1CCN(c2nc(/C=C/c3ccc(OCCO)cc3)cc3ccoc23)CC1 [Example 307] | 7.7 nM | 11.5 nM
CCN1CCN(c2nc(-c3ccc(S(N)(=O)=O)cc3)cc3ccccc23)CC1 [Example 74, 3-(4-Sulfonamidephenyl)-1-(4-Ethylpiperazin-1-Yl)Isoquinoline Hydrochloride] | 4.6 nM | 7.7 nM
CCN1CCN(c2nc(-c3ccc(N4CC[S+]([O-])CC4)nc3)cc3ccccc23)CC1 [Example 151, 1-(4-ethylpiperazin-1-yl)-3-[2-(S-oxythiomorpholin-4-yl)pyridin-5-yl]isoquinoline trihydrochloride] | 7 nM | 79.2 nM
CCN1CCN(c2nc(-c3ccc(OCC(C)=O)cc3)cc3ccccc23)CC1 [Example 47, 1-(1-Ethylpiperazin-4-Yl)-3-(4-Acetonyloxyphenyl)Isoquinoline] | 25.3 nM | 2.6 nM
CCN1CCN(c2nc(-c3ccc(C(O)C4CCCCC4)cc3)cc3ccccc23)CC1 (stereo not shown) [Example 409, 1-(4-ethylpiperazin-1-yl)-3-[4-(cyclohexylhydroxymethyl)phenyl]isoquinoline] | 16.4 nM | 9.7 nM
CCN1CCN(c2nc(-c3ccnc(OCc4ccccc4)c3)cc3ccccc23)CC1 [406 2-Benzyloxy, 1-(4-ethylpiperazin-1-yl)-3-(2-benzyloxypyridin-4-yl)isoquinoline] | 46 nM | 88.1 nM
